Patent US9303016B2, “Derivatives of aza adamantane and uses thereof” (CONNEXIOS LIFE SCIENCES PVT. LTD., priority 2011, dated 2016)

Target: T1, human full length HSD11β1 (Homo sapiens, UniProt P28845)
T1 construct: transient expression of human full length HSD11β1 expression vector; host or cells: CHO cells, transient transfection
Test: In Vitro HSD11β1 Inhibition Assay
Format: cell-based
Conditions: CHO cells transiently expressing human HSD11β1; 200 nM cortisone+500 uM NADPH overnight; cortisone to cortisol by LC/MS-MS; read-out: 11βHSD1 (IC50)
How it was run: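 Whole-cell assay in CHO cells transiently transfected with full-length human HSD11β1, re-seeded 24 h after transfection. Cells incubated overnight with 200 nM cortisone plus 500 uM NADPH, with or without inhibitor. Cortisone-to-cortisol conversion measured by LC/MS-MS; IC50 (nM) from an 8-point log concentration-inhibition curve.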

T1 sequence (P28845 whole entry): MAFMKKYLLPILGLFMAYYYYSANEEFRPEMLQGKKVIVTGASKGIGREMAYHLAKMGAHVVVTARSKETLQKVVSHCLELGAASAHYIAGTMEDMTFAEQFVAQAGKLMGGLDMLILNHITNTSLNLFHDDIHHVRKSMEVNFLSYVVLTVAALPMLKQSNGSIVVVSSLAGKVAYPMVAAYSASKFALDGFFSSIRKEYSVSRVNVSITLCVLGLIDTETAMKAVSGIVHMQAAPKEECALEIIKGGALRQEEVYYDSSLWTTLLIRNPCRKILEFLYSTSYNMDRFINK

Row | Compound | IC50 [nM]
1 | CC(CC(=O)N1C2CC3CC1CC(Cl)(C3)C2)c1c[nH]c2cccc(F)c12 (stereo not shown) [Example 32, 1-(5-chloro-2-azatricyclo[3.3.1.1^3,7]dec-2-yl)-3-(4-fluoro-1H-indol-3-yl)butan-1-one] | 150 to 200
2 | CC(CC(=O)N1C2CC3CC1CC(OCC1CC1)(C3)C2)c1c[nH]c2cccc(F)c12 (stereo not shown) [Example 33, 1-[5-(cyclopropylmethoxy)-2-azatricyclo[3.3.1.1^3,7]dec-2-yl]-3-(4-fluoro-1H-indol-3-yl)butan-1-one] | > 250
3 | COC12CC3CC(C1)N(C(=O)CC(C)c1c[nH]c4ccccc14)C(C3)C2 (stereo not shown) [Example 34, 3-(1H-indol-3-yl)-1-(5-methoxy-2-azatricyclo[3.3.1.1^3,7]dec-2-yl)butan-1-one] | > 250
4 | CC(CC(=O)N1C2CC3CC1CC(O)(C3)C2)c1c[nH]c2cccc(Cl)c12 (stereo not shown) [Example 35, 3-(4-chloro-1H-indol-3-yl)-1-(5-hydroxy-2-azatricyclo[3.3.1.1^3,7]dec-2-yl)butan-1-one] | < 100
5 | CC(CC(=O)N1C2CC3CC1CC(OC(F)F)(C3)C2)c1c[nH]c2cccc(Cl)c12 (stereo not shown) [Example 39, 3-(4-chloro-1H-indol-3-yl)-1-[5-(difluoromethoxy)-2-azatricyclo[3.3.1.1^7]dec-2-yl]butan-1-one] | 100 to 150
6 | CC(CC(=O)N1C2CC3CC1CC(O)(C3)C2)c1c[nH]c2cccc(C3CC3)c12 (stereo not shown) [Example 41] | < 100
7 | CC(CC(=O)N1C2CC3CC1CC(C(=O)O)(C3)C2)c1c[nH]c2cccc(Cl)c12 (stereo not shown) [Example 43, 2-[3-(4-chloro-1H-indol-3-yl)butanoyl]-2-azatricyclo[3.3.1.1^3,7]decane-carboxylic acid] | > 250
8 | CC(CC(=O)N1C2CC3CC1CC(O)(C3)C2)c1c[nH]c2cccc(Oc3ccc(Cl)cc3)c12 (stereo not shown) [Example 44, 3-[4-(4-chlorophenoxy)-1H-indol-3-yl]-1-(5-hydroxy-2-azatricyclo[3.3.1.1^3,7]dec-2-yl)butan-1-one] | 200 to 250
9 | CC(CC(=O)N1C2CC3CC1CC(C(=O)Nc1ccc(F)cc1)(C3)C2)c1c[nH]c2cccc(Cl)c12 (stereo not shown) [Example 45, 2-[3-(4-chloro-1H-indol-3-yl)butanoyl]-N-(4-fluorophenyl)-2-azatricyclo[3.3.1.1^3,7]decane-5-carboxamide] | > 250
10 | CC(CC(=O)N1C2CC3CC1CC(O)(C3)C2)c1cn(S(C)(=O)=O)c2cccc(Cl)c12 (stereo not shown) [Example 46, 3-[4-chloro-1-(methylsulfonyl)-1H-indol-3-yl]-1-(5-hydroxy-2-azatricyclo[3.3.1.1^3,7]dec-2-yl)butan-1-one] | > 250
11 | CC(CC(=O)N1C2CC3CC1CC(C(N)=O)(C3)C2)c1c[nH]c2cccc(Cl)c12 (stereo not shown) [Example 47, 2-[3-(4-chloro-1H-indol-3-yl)butanoyl]-2-azatricyclo[3.3.1.1^3,7]decane-5-carboxamide] | 150 to 200
12 | CC(CC(=O)N1C2CC3CC1CC(C(=O)O)(C3)C2)c1c[nH]c2cccc(C3CC3)c12 (stereo not shown) [Example 51, 2-[3-(4-cyclopropyl-1H-indol-3-yl)butanoyl]-2-azatricyclo[3.3.1.1^3,7]decane-5-carboxylic acid] | > 250
13 | CC(CC(=O)N1C2CC3CC1CC(C(=O)O)(C3)C2)c1c[nH]c2cccc(Br)c12 (stereo not shown) [Example 55, 2-[3-(4-bromo-1H-indol-3-yl)butanoyl]-2-azatricyclo[3.3.1.1^3,7]decane-5-carboxylic acid] | > 250
14 | CC(CC(=O)N1C2CC3CC1CC(C(N)=O)(C3)C2)c1c[nH]c2cccc(C3CC3)c12 (stereo not shown) [Example 56, 2-[3-(4-cyclopropyl-1H-indol-3-yl)butanoyl]-2-azatricyclo[3.3.1.1^3,7]decane-5-carboxamide] | < 100
15 | Cc1cccc2[nH]cc(C(C)CC(=O)N3C4CC5CC3CC(C(=O)O)(C5)C4)c12 (stereo not shown) [Example 57, 2-[3-(4-methyl-1H-indol-3-yl)butanoyl]-2-azatricyclo[3.3.1.1^3,7]decane-5-carboxylic acid] | > 250
16 | CC(CC(=O)N1C2CC3CC1CC(CO)(C3)C2)c1c[nH]c2cccc(Cl)c12 (stereo not shown) [Example 58, 3-(4-chloro-1H-indol-3-yl)-1-[5-(hydroxymethyl)-2-azatricyclo[3.3.1.1^3,7]dec-2-yl]butan-1-one] | < 100
17 | CC(CC(=O)N1C2CC3CC1CC(C#N)(C3)C2)c1c[nH]c2cccc(Cl)c12 (stereo not shown) [Example 59, 2-[3-(4-chloro-1H-indol-3-yl)butanoyl]-2-azatricyclo[3.3.1.1^3,7]decane-5-carbonitrile] | 100 to 150
18 | Cc1[nH]c2cccc(Cl)c2c1C(C)CC(=O)N1C2CC3CC1CC(O)(C3)C2 (stereo not shown) [Example 60, 3-(4-chloro-2-methyl-1H-indol-3-yl)-1-(5-hydroxy-2-azatricyclo[3.3.1.1^3,7]dec-2-yl)butan-1-one] | > 250
19 | CC(CC(=O)N1C2CC3CC1CC(C(=O)O)(C3)C2)c1c[nH]c2ccccc12 (stereo not shown) [Example 61, 2-[3-(1H-indol-3-yl)butanoyl]-2-azatricyclo[3.3.1.1^3,7]decane-5-carboxylic acid] | > 250
20 | CC(CC(=O)N1C2CC3CC1CC(C(=O)O)(C3)C2)c1c[nH]c2cccc(-c3ccc(F)cc3)c12 (stereo not shown) [Example 62, 2-{3-[4-(4-fluorophenyl)-1H-indol-3-yl]butanoyl}-2-azatricyclo[3.3.1.1^3,7]decane-5-carboxylic acid] | > 250
21 | CC(CC(=O)N1C2CC3CC1CC(C(=O)NCc1ccc(C(=O)O)cc1)(C3)C2)c1c[nH]c2cccc(C3CC3)c12 (stereo not shown) [Example 63, 4-{[({2-[3-(4-cyclopropyl-1H-indol-3-yl)butanoyl]-2-azatricyclo[3.3.1.1^3,7]dec-5-yl}carbonyl)amino]methyl}benzoic acid] | > 250
22 | CCC(CC(=O)N1C2CC3CC1CC(O)(C3)C2)c1c[nH]c2ccccc12 (stereo not shown) [Example 64, 1-(5-hydroxy-2-azatricyclo[3.3.1.1^3,7]dec-2-yl)-3-(1H-indol-3-yl)pentan-1-one] | 100 to 150
23 | CC(CC(=O)N1C2CC3CC1CC(C#N)(C3)C2)c1c[nH]c2ccccc12 (stereo not shown) [Example 65] | 200 to 250
24 | O=C(CC(c1c[nH]c2ccccc12)C1CC1)N1C2CC3CC1CC(O)(C3)C2 (stereo not shown) [Example 66, 3-cyclopropyl-1-(5-hydroxy-2-azatricyclo[3.3.1.1^3,7]dec-2-yl)-3-(1H-indol-3-yl)propan-1-one] | > 250
25 | O=C(CC(c1ccccc1)c1c[nH]c2ccccc12)N1C2CC3CC1CC(O)(C3)C2 (stereo not shown) [Example 67, 1-(5-hydroxy-2-azatricyclo[3.3.1.1^3,7]dec-2-yl)-3-(1H-indol-3-yl)-3-phenylpropan-1-one] | 100 to 150
26 | CC(CC(=O)N1C2CC3CC1CC(O)(C3)C2)c1c[nH]c2ccc(Cl)cc12 (stereo not shown) [Example 68, 3-(5-chloro-1H-indol-3-yl)-1-(5-hydroxy-2-azatricyclo[3.3.1.1^3,7]dec-2-yl)butan-1-one] | > 250
27 | CC(CC(=O)N1C2CC3CC1CC(O)(C3)C2)c1c[nH]c2cc(Cl)ccc12 (stereo not shown) [Example 69, 3-(6-chloro-1H-indol-3-yl)-1-(5-hydroxy-2-azatricyclo[3.3.1.1^3,7]dec-2-yl)butan-1-one] | 100 to 150
28 | Cc1cccc2[nH]cc(C(C)CC(=O)N3C4CC5CC3CC(C#N)(C5)C4)c12 (stereo not shown) [Example 70, 2-[3-(4-methyl-1H-indol-3-yl)butanoyl]-2-azatricyclo[3.3.1.1^3,7]decane-5-carbonitrile] | 150 to 200
29 | O=C(CC(c1ccc(Cl)cc1)c1c[nH]c2ccccc12)N1C2CC3CC1CC(O)(C3)C2 (stereo not shown) [Example 71, 3-(4-chlorophenyl)-1-(5-hydroxy-2-azatricyclo[3.3.1.1^3,7]dec-2-yl)-3-(1H-indol-3-yl)propan-1-one] | > 250
30 | Cc1cccc2[nH]cc(C(CC(=O)N3C4CC5CC3CC(O)(C5)C4)c3ccccc3)c12 (stereo not shown) [Example 72, 1-(5-hydroxy-2-azatricyclo[3.3.1.1^3,7′]dec-2-yl)-3-(4-methyl-1H-indol-3-yl)-3-phenylpropan-1-one] | > 250

System: not given
Test: not given
Conditions: phase IIa, 28-days, placebo-controlled, two-step hyperinsulinemic clamp studies; cited from earlier work

Row | Compound | safety and tolerability
31 | CNC(=O)c1ccc(-c2ccc(C3(C(=O)N4CC[C@@]5(C4)OC(=O)c4ccccc45)CC3)cc2)cn1 [INCB13739] | safe and well tolerated
